Data published in patent publication US6737383B1, “Herbicidal oxadiazolidines” (priority 1999, dated 2004).

Experiments:
soybean = experiment: Test B pre/postemergence soybean; format: in vivo, Glycine max
Procedure, shortened: (§1)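 Test chemicals in a non-phytotoxic solvent mixture with surfactant were sprayed preemergence onto planted seeds and postemergence onto plants 2 to 18 cm tall (1- to 4-leaf stage). After twelve to sixteen days in a greenhouse, injury was visually rated against untreated controls from 0 (no effect) to 10 (complete control).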

wheat = experiment: Test B pre/postemergence wheat; format: in vivo, Triticum aestivum
Procedure, shortened: as §1

purple nutsedge = experiment: Test B pre/postemergence purple nutsedge; format: in vivo, Cyperus rotundus
Procedure, shortened: as §1

duck salad = experiment: Test B flood test duck salad; format: in vivo, Heteranthera limosa
Procedure, shortened: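 Each value is a visual injury score relative to controls, with 10 meaning complete control and 0 no effect. Evaluation took place twelve to sixteen days after the 2-leaf-stage plants were treated and kept in the greenhouse.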

[1] = Postemergence, Rate 62 g/ha, scale 0 to 10, 0 is no effect, 10 is complete control
[2] = Postemergence, Rate 250 g/ha, scale 0 to 10, 0 no effect, 10 complete control
[3] = Preemergence, Rate 62 g/ha, scale 0 to 10, 0 is no effect, 10 is complete control
[4] = Preemergence, Rate 125 g/ha, scale 0 to 10 (0 no effect, 10 complete control)
[5] = Preemergence, Rate 250 g/ha, scale of 0 to 10 where 0 is no effect and 10 is complete control
[6] = Preemergence, Rate 500 g/ha, scale 0 (no effect) to 10 (complete control)
[7] = Rate 125 g/ha, Postemergence, scale 0 to 10, 0 no effect, 10 complete control
[8] = Rate 500 g/ha, Postemergence, 0 to 10 scale (0 no effect, 10 complete control)
[9] = Rate 125 g/ha, Postemergence section (flood test species), scale 0 to 10, 0 no effect, 10 complete control
[10] = Rate 500 g/ha, Postemergence section of Table B, 0 to 10 scale (0 no effect, 10 complete control)
[11] = flood test, listed under Postemergence, Rate 250 g/ha, scale 0 to 10, 0 no effect, 10 complete control
[12] = Preemergence, Rate 62 g/ha, scale 0 to 10 (0 no effect, 10 complete control)
[13] = Rate 500 g/ha, Postemergence, scale 0 to 10, 0 no effect, 10 complete control
[14] = Rate 62 g/ha, headed Pre-emergence (flood test species), scale 0 to 10 (0 no effect, 10 complete control)
[15] = Rate 125 g/ha, Pre-emergence, flood test species, scale 0 to 10 where 0 is no effect and 10 is complete control
[16] = Rate 250 g/ha, headed Pre-emergence (flood test species), scale 0 to 10 (0 no effect, 10 complete control)
[17] = Rate 500 g/ha, headed Pre-emergence (flood test species), scale 0 to 10 (0 no effect, 10 complete control)

SMILES | Soybean plant response rating (soybean; [1]) | Soybean plant response rating (soybean; [2]) | Plant response rating, Soybean (soybean; [4]) | Plant response rating, Soybean (soybean; [5]) | Soybean plant response rating (soybean; [6]) | Soybean plant response rating (soybean; [7]) | Wheat plant response rating (wheat; [1]) | Wheat plant response rating (wheat; [2]) | Plant response rating, Wheat (wheat; [4]) | Plant response rating, Wheat (wheat; [5]) | Wheat plant response rating (wheat; [6]) | Wheat plant response rating (wheat; [7]) | Nutsedge plant response rating (purple nutsedge; [1]) | Nutsedge plant response rating (purple nutsedge; [2]) | Plant response rating, Nutsedge (purple nutsedge; [4]) | Plant response rating, Nutsedge (purple nutsedge; [5]) | Nutsedge plant response rating (purple nutsedge; [6]) | Nutsedge plant response rating (purple nutsedge; [7]) | Ducksalad plant response rating (duck salad; [1]) | Ducksalad plant response rating (duck salad; [9]) | further results
CC(C)N(C(=O)n1oc(=O)n(-c2cc(Cl)ccc2Cl)c1=O)c1ccc(F)cc1 [Compound 16] | 1 | 1 | 0 | 0 | 0 | 1 | 0 | 0 | 0 | 0 | 0 | 0 | 0 | 0 | 0 | 0 | 0 | 0 | 0 | 0 | Plant response rating, Soybean (soybean; [3]): 0; Plant response rating, Wheat (wheat; [3]): 0; Plant response rating, Nutsedge (purple nutsedge; [3]): 0; Nutsedge plant response rating (purple nutsedge; [8]): 0; Ducksalad plant response rating (duck salad; [10]): 0; Ducksalad plant response rating (duck salad; [11]): 0
CC(C)N(C(=O)n1oc(=O)n(-c2ccc(Cl)cc2C(F)(F)F)c1=O)c1ccc(F)cc1 [Compound 20] | 3 | 3 | 0 | 0 | 0 | 3 | 0 | 0 | 0 | 0 | 0 | 0 | 0 | 0 | 0 | 0 | 0 | 0 | 0 | 0 | Plant response rating, Soybean (soybean; [3]): 0; Plant response rating, Wheat (wheat; [3]): 0; Plant response rating, Nutsedge (purple nutsedge; [3]): 0; Nutsedge plant response rating (purple nutsedge; [8]): 0; Ducksalad plant response rating (duck salad; [10]): 0; Ducksalad plant response rating (duck salad; [11]): 0
Cc1ccccc1-n1c(=O)on(C(=O)N(c2cc(OC(C)C)c(Cl)cc2Cl)C(C)C)c1=O [Compound 42] | 0 | 0 | 0 | 0 | 0 | 0 | 0 | 0 | 0 | 0 | 0 | 0 | 0 | 0 | 0 | 0 | 0 | 0 | 0 | 0 | Plant response rating, Soybean (soybean; [3]): 0; Plant response rating, Wheat (wheat; [3]): 0; Plant response rating, Nutsedge (purple nutsedge; [3]): 0; Nutsedge plant response rating (purple nutsedge; [8]): 0; Ducksalad plant response rating (duck salad; [10]): 0; Ducksalad plant response rating (duck salad; [11]): 0
Cc1cccc(C(C)C)c1-n1c(=O)on(C(=O)N(c2ccccc2)C(C)C)c1=O [Compound 66] | 1 | 2 | 0 | 0 | 0 | 1 | 0 | 0 | 0 | 0 | 0 | 0 | 0 | 0 | 0 |  | 6 | 0 | 0 | 0 | Soybean plant response rating (soybean; [12]): 0; Soybean plant response rating (soybean; [13]): 3; Wheat plant response rating (wheat; [12]): 0; Wheat plant response rating (wheat; [13]): 0; Nutsedge plant response rating (purple nutsedge; [12]): 0; Nutsedge plant response rating (purple nutsedge; [13]): 0; Ducksalad plant response rating (duck salad; Rate 500 g/ha, listed under Postemergence (flood test species), scale 0 to 10, 0 no effect, 10 complete control): 2; Ducksalad plant response rating (duck salad; [11]): 0
Cc1cccc(C)c1-n1c(=O)on(C(=O)N(Cc2ccccc2)C(C)C)c1=O [Compound 69] | 2 | 2 | 0 | 0 | 0 | 2 | 0 | 0 | 0 | 0 | 0 | 0 | 0 | 0 | 0 | 0 | 0 | 0 |  |  | Soybean plant response rating (soybean; [12]): 0; Soybean plant response rating (soybean; [13]): 3; Wheat plant response rating (wheat; [12]): 0; Wheat plant response rating (wheat; [13]): 0; Nutsedge plant response rating (purple nutsedge; [12]): 0; Nutsedge plant response rating (purple nutsedge; [13]): 0; Ducksalad plant response rating (duck salad; [14]): 0; Ducksalad plant response rating (duck salad; [15]): 0; Ducksalad plant response rating (duck salad; [16]): 0; Plant response rating, Ducksalad (duck salad; [17]): 0
Cc1ccccc1-n1c(=O)on(C(=O)N(Cc2ccccc2)C(C)C)c1=O [Compound 72] | 0 | 0 | 0 | 0 | 0 | 0 | 0 | 0 | 0 | 0 | 0 | 0 | 0 | 0 | 0 | 0 | 0 | 0 |  |  | Soybean plant response rating (soybean; [12]): 0; Soybean plant response rating (soybean; [13]): 0; Wheat plant response rating (wheat; [12]): 0; Wheat plant response rating (wheat; [13]): 0; Nutsedge plant response rating (purple nutsedge; [12]): 0; Nutsedge plant response rating (purple nutsedge; [13]): 0; Ducksalad plant response rating (duck salad; [14]): 0; Ducksalad plant response rating (duck salad; [15]): 0; Ducksalad plant response rating (duck salad; [16]): 0; Plant response rating, Ducksalad (duck salad; [17]): 0
